Assay results published in patent publication US20210108180A1, “ELECTROCONDUCTIVE DECELLULARIZED EXTRACELLULAR MATRIX COMPOSITIONS FOR PREPARATION OF ENGINEERED TISSUES AND RELATED METHODS” (University of Washington, priority 2019, published 2021).
Like-named read-outs stand apart in the source and are kept apart here.

Key:
[1] = reported ETPC range; cited from earlier work
[2] = system: cardiac tissues bioprinted using dECM-rGO bioink (hiPSC-derived cardiomyocytes and HS27A stromal cells); experiment: Cisapride cardiotoxicity dose response, FluoVolt imaging, tissues printed with dECM-rGO bioink; assay type: cell-based; conditions: Homo sapiens, HS-27A
Protocol: (§1) Tissues and support structures were bioprinted using a commercially available dual-extruder pneumatic bioprinter (Allevi BioBot 1). Five pairs of polycaprolactone (PCL) posts 1 mm in diameter, 5 mm tall, and 10 mm apart were printed in each well of a standard 6-well plate. An approximately 2 mm thick layer of NOA 83H resin (Norland Optical Adhesives) was then deposited onto the bottom of each well and cured by a 30 min exposure to UV light. Plates containing anchored posts were then sterilized by immersion in 70% v/v ethanol and subsequent UV light exposure. Sacrificial wells 12 mm×5 mm×1 mm (length×width×depth) were then printed around each post pair using 40% w/v Pluronic F-127, followed by approximately 50 μL of cell-laden hydrogel bioinks with the same cell densities as used in the EHT platform (20×10^6 hiPSC-derived cardiomyocytes/mL and 5×10^6 HS27A stromal cells/mL). Completed plates were then incubated at 37° C. and 5% CO2 for approximately 60 min, after which 5 mL of RPMI/B-27 with insulin (supplemented with Y-27632 dihydrochloride ROCK inhibitor and 1% penicillin/streptomycin) was added to each well. After 24 hrs, the media was replaced with fresh RPMI/B-27 with insulin and media changes were conducted every other day until tissues were used for drug screening. Exemplary cardiac tissues were bioprinted using dECM and dECM-rGO bioinks disclosed herein and cultured for 14 and 35 days. At these time points, tissues were washed with warm PBS before being incubated in medium containing a 1000X dilution of stock FluoVolt for 1 hr at 37° C., after which tissues were washed twice with warm Tyrode's buffer and incubated in Tyrode's containing 0.01, 0.1, 1, 5, 10, 50, 100, and 1000 nM cisapride (Sigma-Aldrich) dissolved in dimethyl sulfoxide (DMSO) for 45 mins. A group of tissues were also incubated in Tyrode's containing no cisapride, but an equivalent volume of DMSO (1 μL DMSO/mL Tyrode's). Functional response of these tissues to administered drug was assessed using FluoVolt dye in conjunction with live-tissue imaging as described above. Change in beat interval (ABI) was determined by measuring that duration of elapsed time between individual beats (the beat interval) and calculating the difference in this interval from one beat to the next. APD90 values were calculated as described above. Best-fit dose response curves were calculated using GraphPad Prism software. Drug concentration values were first transformed to a log scale and APD90 or ABI values were normalized such that the lowest value was set at 0% and the largest value at 100%. Finally, the normalized data was fit to a non-linear dose response curve using a least squares fit.

[3] = system: cardiac tissues bioprinted using dECM bioink (hiPSC-derived cardiomyocytes and HS27A stromal cells); experiment: Cisapride cardiotoxicity dose response, FluoVolt imaging, tissues printed with dECM bioink; assay type: cell-based; conditions: Homo sapiens, HS-27A
Protocol: as §1

[4] = 336 h, Day 14 of culture, change in beat interval, read-out: IC50 (ΔBI)
[5] = Day 35 of culture, change in beat interval, read-out: IC50 (ΔBI)
[6] = Day 35 of culture, read-out: IC50 (APD90)

Q: For COc1cc(N)c(Cl)cc1C(=O)NC1CCN(CCCOc2ccc(F)cc2)CC1OC (stereo not drawn) [cisapride], which “effective therapeutic plasma concentration (ETPC)” value [1] is on record?
A: Its value is 2.6 to 4.9 nM.

Q: And the IC50 [2, 4]?
A: The IC50 was 8.6 ± 1.2 nM.

Q: And the IC50 ([2]; Day 14 of culture, 45 min cisapride, read-out: IC50 (APD90))?
A: The IC50 was 2.5 ± 1.3 nM.

Q: What about the IC50 [2, 5] of the same compound?
A: Its IC50 is 3.1 ± 1.3 nM.

Q: What about the IC50 [2, 6] of the same compound?
A: The IC50 was 1.8 ± 1.4 nM.

Q: And the IC50 [3, 4]?
A: Its IC50 is 73.4 ± 1.4 nM.

Q: What about the IC50 ([3]; 336 h, Day 14 of culture, read-out: IC50 (APD90)) of the same compound?
A: Its IC50 is 61.8 ± 1.4 nM.

Q: And the IC50 [3, 5]?
A: The IC50 was 7.3 ± 1.2 nM.

Q: What about the IC50 [3, 6] of the same compound?
A: The IC50 was 2 ± 1.3 nM.
